Measured values: PubChem BioAssay (NCI)
Where “and” joins values, the source holds several entries; their conditions need not be identical. Equal values may be shown once.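 Exposure lasted 48 hours, with cells grown in 96-well plates and compounds tested at five concentrations. Here, GI50 denotes the concentration required for 50% inhibition of growth. TGI: concentration producing complete growth inhibition.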

Legend:
Assay in all cases: inhibition of tumour cell growth, NCI panel, 48 h
[1] = test system: M19-MEL melanoma
[2] = test system: KM20L2 colon
[3] = test system: HOP-18 NSCLC
[4] = test system: IGROV1 ovarian
[5] = test system: RXF 393 renal
[6] = test system: SNB-78 CNS
[7] = test system: BT-549 breast
[8] = test system: HS 578T breast
[9] = test system: MDA-MB-435
[10] = test system: MDA-MB-231 breast

Structure (SMILES)	TGI [1]	TGI [2]	TGI [3] [µM]	TGI [4]	TGI [5]	TGI [6]	TGI [7]	TGI [8]	GI50 [2]	GI50 [4]	GI50 [9]	TGI [9]	GI50 [5]	GI50 [7]	GI50 [10]	TGI [10]	GI50 [8]
COC(=O)/C(=N\NC(N)=S)C(C(=O)OC)C(=O)C(=O)Nc1ccc(C)cc1 (stereo unspecified)	> 100 µM	> 100 µM	> 100	> 100 µM	> 100 µM	> 100 µM											
Cc1cc2c(=O)c3ccccc3[nH]c2c(C(N)=O)c1C	> 100 µM	> 100 µM	> 100	> 100 µM	> 100 µM	> 100 µM											
Cc1ccccc1C(=O)c1cc(O)ccc1O	> 100 µM	> 100 µM	> 100	> 100 µM	> 100 µM	> 100 µM											
CN(C)CCC(/C=C/c1ccccc1)=N\Nc1ccccc1	3.63 µM	0.655 µM	16.6	16.5 µM	18.6 µM	14.7 µM											
COCC(OC)C(CC=C(C#N)C#N)OC (stereo unspecified)	> 100 µM	> 100 µM		> 100 µM		> 100 µM											
CCOC(=O)c1nc2c(OC)nn(O)cc-2c1[N+](=O)[O-]	89.2 µM	30.1 µM	34.9	> 100 µM	29.3 µM	44.6 µM											
COc1c(O)c2c(=O)cc3c4c5c(cc(=O)c6c(O)c(OC)c(CC(C)O)c(c(c1CC(C)O)c24)c65)OCO3 (stereo unspecified)	2.08 µM	1.69 µM	8.3	4.63 µM	4.03 µM	8.04 µM											
COc1ccc2c(c1OCC(=O)O)C(=O)C(CCC(=O)O)CC2 (stereo unspecified)	> 100 µM	> 100 µM	> 100	> 100 µM	> 100 µM	> 100 µM											
COC(=O)/C(C#N)=C1\N=NNN1c1ccc(OC)cc1	> 100 µM		> 100	> 100 µM	> 100 µM	> 100 µM											
CCCCCCCCCCCCCCCC(=O)OCCOCCOCCOCc1ccccc1	> 100 µM		> 100	> 100 µM	> 100 µM	> 100 µM											
O=C1CCC2(c3ccc(Cl)cc3)Nc3cc(Cl)ccc3N12 (stereo unspecified)	25.5 µM	28.9 µM	14.6	28.7 µM	24.6 µM	43.4 µM											
COC1C(OC(=S)Nc2ccccc2)c2ccccc2N1C(C)=O (stereo unspecified)	> 100 µM	> 100 µM	> 100	> 100 µM	> 100 µM	> 100 µM											
Cc1nc(Nc2ccc(Cl)cc2)sc1C(=O)NNC(=S)NN	40.7 µM	32.5 µM	33.5	63 µM	27.6 µM	57.2 µM											
CCOC(=O)N[C@H]1CCc2cc(OC)c(OC)c(OC)c2-c2ccc(SC)c(=O)cc21		< 0.01 µM	> 100	> 100 µM	> 100 µM	> 100 µM	33.2 µM and > 32.5 µM	> 100 µM									
COC(=O)/C(=C/c1ccc(OC)cc1)C(C(=O)O)=C1CCCC1	> 100 µM	> 100 µM		> 100 µM	> 100 µM	> 100 µM											
O=C(Nc1cccc(Cl)c1)C(=O)C(C(=O)c1ccc2ccccc2c1)C1OC(=O)c2ccccc21 (stereo unspecified)	39.1 µM	> 100 µM	28.2	96.3 µM		50.6 µM											
CCOC(=O)N1CCC(N[C@@H]2c3cc4c(cc3C(c3cc(OC)c(O)c(OC)c3)C3C(=O)OC[C@@H]32)OCO4)CC1 (stereo partly specified)	12.8 µM and 10.2 µM	14.5 µM and 15.6 µM		13.6 µM and 9.21 µM		50 µM and > 25 µM			2.16 µM and 4.5 µM								
C#CC1/C(=C\C(=O)OC)CCCC1O (stereo unspecified)	> 100 µM	> 100 µM	> 100	> 100 µM	> 100 µM	> 100 µM											
O=C(CC1C(=O)Nc2ccccc2S1=O)Nc1cc(Cl)ccc1Cl (stereo unspecified)	> 100 µM	> 100 µM		> 100 µM	> 100 µM	> 100 µM											
CSc1nc(SC)c2c(C#N)[nH]nc2n1	> 100 µM	> 100 µM		> 100 µM	> 100 µM	> 100 µM											
CC12CCC(=O)C[C@H]1CCC(OC=O)C2Br (stereo partly specified)	> 100 µM	> 100 µM	> 100	> 100 µM													

Structure (SMILES)	TGI [1]	TGI [2]	TGI [3] [µM]	TGI [4]	TGI [5]	TGI [6]	TGI [7]	TGI [8]	GI50 [2]	GI50 [4]	GI50 [9]	TGI [9]	GI50 [5]	GI50 [7]	GI50 [10]	TGI [10]	GI50 [8]
COc1ccc(OCC(=O)O)c2c1CCCC2=O	> 100 µM			> 100 µM	> 100 µM	> 100 µM											
On1c(-c2ccccc2)c(-c2ccccc2N2CCCC2)c2ccccc21	> 100 µM	> 100 µM	> 100	> 100 µM		> 100 µM											
O=C(OC1CCC(=C2SCCCS2)[C@H]1C1SCCCS1)c1ccccc1 (stereo partly specified)	> 100 µM	> 100 µM		> 100 µM	> 100 µM												
Cc1ccc2nc(/C(=C/c3ccc(/C=C(\NC(=O)c4ccccc4)c4nc5ccc(C)cc5[nH]4)c(C)c3)NC(=O)c3ccccc3)[nH]c2c1	44.8 µM	45.3 µM		> 100 µM		79.1 µM											
O=C(/C(=C/c1ccc(Cl)cc1)c1ccccc1)c1ccccc1			62.3	49.1 µM		68.7 µM											
CC1(C)COC(c2cccc3c2C(=O)c2cccc(Cl)c2-3)=N1		> 100 µM		> 100 µM	68.2 µM	> 100 µM											
O=C(c1ccco1)c1c(C(F)(F)F)nc2ccc(Cl)cc2[n+]1[O-]				> 100 µM	> 100 µM		> 100 µM	51.4 µM		> 100 µM	> 100 µM	> 100 µM	70.3 µM	> 100 µM	> 100 µM	> 100 µM	19.8 µM
CCOC(=O)Nc1cc2c(c(N)n1)N=C(c1ccccc1)CO2				11.9 µM	32.1 µM		> 100 µM	> 69.4 µM		0.148 µM	0.0169 µM	0.0399 µM	0.275 µM	23.1 µM	0.691 µM	6.43 µM	0.388 µM
O=C(NC[C@H](O)CN1CCc2ccccc2C1)c1cc(NC2COC2)ncn1				39.9 µM	12.9 µM		35.4 µM	81.4 µM		15.7 µM	12.9 µM	94.1 µM	2.31 µM	7.24 µM	16.1 µM	46.9 µM	19.1 µM
C/C(CC(=O)Nc1ccc(C)c(C)c1)=N\N(c1ccccc1)c1ccccc1		26 µM	> 100	> 100 µM	> 100 µM	> 100 µM											
COc1cc(C(=O)N2CCN(C(=O)c3cc(OC)c(OC)c(OC)c3)C2=S)cc(OC)c1OC				56.6 µM	28.1 µM		34.1 µM	> 100 µM		24.7 µM	13.1 µM	28.8 µM	14.3 µM	17.4 µM	16.7 µM	36 µM	24.7 µM
O=C(Nc1cc(C(F)(F)F)cc(C(F)(F)F)c1)c1cc(Cl)ccc1O				> 2.34 µM and 11.9 µM	1.16 µM and 0.673 µM		0.714 µM and 0.712 µM	0.807 µM and 0.821 µM		0.271 µM and 0.357 µM	0.288 µM and 0.284 µM	1.31 µM and 1.61 µM	0.245 µM and 0.19 µM	0.206 µM and 0.213 µM	0.241 µM and 0.225 µM	> 2.17 µM and 2.63 µM	0.222 µM and 0.212 µM
NC(N)=NCCCC(=O)O				> 100 µM	> 100 µM		> 100 µM	> 100 µM				> 100 µM				> 100 µM	
CN(C)C1CCN(C(=O)c2ccc(NC(=O)Nc3ccc(-c4nc(N5CCOCC5)c5cccn5n4)cc3)cc2)CC1				0.211 µM	0.604 µM		2.25 µM	0.0926 µM		0.0302 µM	0.0403 µM	0.492 µM	0.088 µM	0.177 µM	0.0491 µM	11.1 µM	0.0192 µM
CC1(C)OC2C(CO[Si](C)(C)C(C)(C)C)OC(n3c(I)c(C#C[Si](C)(C)C)c(=O)[nH]c3=O)C2O1 (stereo unspecified)				21.5 µM	9.1 µM		32.1 µM	51.1 µM		7.87 µM	15.7 µM	44.3 µM	2.51 µM	13.2 µM	4.22 µM	17 µM	16.8 µM
CCOc1ccc(/C=C2\N=C(c3ccc([N+](=O)[O-])cc3)OC2=O)cc1				> 100 µM	> 100 µM		> 100 µM	> 100 µM				> 100 µM				> 100 µM	
CC(C)(/C=C(\C#N)C(=O)N1CCC[C@@H](n2nc(-c3ccc(Oc4ccccc4)cc3F)c3c(N)ncnc32)C1)N1CCN(C2COC2)CC1				16.6 µM	7.66 µM		18.6 µM	23.8 µM		4.3 µM	4.81 µM	17.3 µM	2.31 µM	5.42 µM	10.2 µM	27.7 µM	4.67 µM
CCN(CC)CCNc1nc(N)c(C#N)c(C#N)c1C#N				> 10 µM	> 10 µM		> 10 µM	> 10 µM				> 10 µM				> 10 µM	
CC(C)(C)c1cc(C(P(=O)(O)O)P(=O)(O)O)cc(C(C)(C)C)c1O	> 100 µM	> 100 µM	> 100	> 100 µM		> 100 µM											
N=c1c2c(-c3ccccc3)c(-c3ccccc3)n(Cc3ccccc3)c2ncn1C1CCC(O)CC1 (stereo unspecified)				4.49 µM	2.4 µM		9.85 µM	23.8 µM		0.0902 µM	0.346 µM	4.89 µM	0.374 µM	2.55 µM	1.29 µM	4.65 µM	1.57 µM
